Structures are written as SMILES.

The assay concerns the target T1, Human TRPC6 (Homo sapiens, UniProt Q9Y210).
T1 construct: expressed in transfected cells
T1 sequence (Q9Y210 1-931): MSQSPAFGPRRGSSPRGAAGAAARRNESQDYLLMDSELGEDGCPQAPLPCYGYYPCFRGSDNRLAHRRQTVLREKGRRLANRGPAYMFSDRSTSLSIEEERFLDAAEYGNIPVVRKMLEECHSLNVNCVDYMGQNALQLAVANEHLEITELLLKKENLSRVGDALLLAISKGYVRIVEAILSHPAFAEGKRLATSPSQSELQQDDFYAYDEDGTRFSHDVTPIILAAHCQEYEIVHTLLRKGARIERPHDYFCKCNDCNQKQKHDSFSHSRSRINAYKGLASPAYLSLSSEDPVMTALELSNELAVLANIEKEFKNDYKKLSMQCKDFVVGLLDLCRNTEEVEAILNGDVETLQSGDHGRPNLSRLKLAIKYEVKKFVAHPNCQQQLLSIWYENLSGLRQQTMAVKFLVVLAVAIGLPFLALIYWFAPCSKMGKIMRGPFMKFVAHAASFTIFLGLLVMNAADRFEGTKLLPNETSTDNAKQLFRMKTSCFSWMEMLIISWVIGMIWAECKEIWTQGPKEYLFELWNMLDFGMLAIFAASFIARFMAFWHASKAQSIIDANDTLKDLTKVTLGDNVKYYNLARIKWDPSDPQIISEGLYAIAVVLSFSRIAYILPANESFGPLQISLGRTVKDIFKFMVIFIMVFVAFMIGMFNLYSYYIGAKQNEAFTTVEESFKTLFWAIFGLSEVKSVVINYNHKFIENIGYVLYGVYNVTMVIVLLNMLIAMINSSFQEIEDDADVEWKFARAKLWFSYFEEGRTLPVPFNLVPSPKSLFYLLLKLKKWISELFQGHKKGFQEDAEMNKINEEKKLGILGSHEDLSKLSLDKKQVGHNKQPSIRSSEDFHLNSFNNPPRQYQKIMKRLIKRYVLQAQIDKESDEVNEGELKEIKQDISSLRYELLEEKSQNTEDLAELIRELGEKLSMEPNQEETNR
Put plainly: Evaluation of TRPC6 channel inhibitory activity (1), FLIPR Calcium 5 Assay Kit, OAG stimulation (Compound Nos. 1-1293). It is filed as cell-based. The conditions noted are these: Human TRPC6 stably-expressing cells, OAG 30 μM, FLIPR Calcium 5 Assay Kit; read-out: Inhibitory activity (pIC50 class) (converted). The essentials:
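TRPC6 (human) stable cells, 24 h culture; Ca5 no-wash dye + probenecid 30 min; cpd 20 min; OAG 30 μM final; ΔF (pre-cpd min to post-OAG max); 0%/100% = no cpd / no cpd + no OAG; 4PL → pIC50, binned +/++/+++.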
As for `Cn1nc(-c2ccccc2)c(F)c1Oc1cc(C#N)ccc1-c1ncc(CCN)cn1` [compound 360, 4-[5-(2-aminoethyl)pyrimidin-2-yl]-3-(4-fluoro-2-methyl-5-phenylpyrazol-3-yl)oxybenzonitrile], the IC50 is less than 10 nM. As for `Cn1nc(C(F)(F)F)cc1Oc1cc(C#N)ccc1-c1ncc(CN)cn1` [Compound No. 811, 4-[5-(Aminomethyl)pyrimidin-2-yl]-3-[2-methyl-5-(trifluoromethyl)pyrazol-3-yl]oxybenzonitrile], the IC50 was less than 10 nM.

For `CC(C)n1cc(C(=O)c2cc(C#N)ccc2-c2ncc(CN)cn2)cn1` [compound 1045, 4-[5-(aminomethyl)pyrimidin-2-yl]-3-(1-propan-2-ylpyrazole-4-carbonyl)benzonitrile], the IC50 is less than 10 nM. The result for `Cc1nc(Oc2cc(C#N)ccc2-c2ccc(CN)cn2)cc(N(C)C)n1` [compound 659, 4-[5-(aminomethyl)pyridin-2-yl]-3-[6-(dimethylamino)-2-methylpyrimidin-4-yl]oxybenzonitrile] reads 10 to 1000 nM; that for `N#Cc1ccc(-c2ccc(CCN)cn2)c(Oc2cnnc(-c3ccccc3)c2)c1` [Compound 103, 4-[5-(2-aminoethyl)pyridin-2-yl]-3-(6-phenylpyridazin-4-yl)oxybenzonitrile], 10 to 1000 nM. For the molecule `Cn1nc(C2CC2)cc1Oc1cc(C#N)ccc1-c1ccc([C@@H](O)CN)cn1` [compound 374, 4-[5-[(1R)-2-amino-1-hydroxyethyl]pyridin-2-yl]-3-(5-cyclopropyl-2-methylpyrazol-3-yl)oxybenzonitrile], the IC50 is less than 10 nM.

Regarding `N#Cc1ccc(-c2ncc(CN)cn2)c(C(=O)c2nnc(N3CCOCC3)o2)c1` [compound 1090, 4-[5-(aminomethyl)pyrimidin-2-yl]-3-(5-morpholin-4-yl-1,3,4-oxadiazole-2-carbonyl)benzonitrile], the IC50 is greater than 1000 nM. As to `Cn1nc(-c2cccnc2)cc1Oc1cc(C#N)ccc1-c1ccc(C(O)CN)cc1` (stereo not drawn) [Compound 177, 4-[4-(2-amino-1-hydroxyethyl)phenyl]-3-(2-methyl-5-pyridin-3-ylpyrazol-3-yl)oxybenzonitrile], the IC50 was less than 10 nM.

Regarding `Cn1nc(-c2ccccc2OCc2ccccc2)cc1Oc1cc(C#N)ccc1-c1ccc(C(O)CN)cn1` (stereo not drawn) [compound 322, 4-[5-(2-amino-1-hydroxyethyl)pyridin-2-yl]-3-[2-methyl-5-(2-phenylmethoxyphenyl)pyrazol-3-yl]oxybenzonitrile], the IC50 was 10 to 1000 nM. For the molecule `Cc1nc(-c2ccccc2)cn1Cc1cc(C#N)ccc1-c1ccc(C(O)CN)cn1` (stereo not drawn) [compound 1139, 4-[5-(2-amino-1-hydroxyethyl)pyridin-2-yl]-3-[(2-methyl-4-phenylimidazol-1-yl)methyl]benzonitrile], the IC50 is 10 to 1000 nM. Regarding `CC(C)Cn1cc(C(=O)c2cc(C#N)ccc2-c2ncc(CCN)cn2)cn1` [compound 1060, 4-[5-(2-aminoethyl)pyrimidin-2-yl]-3-[1-(2-methylpropyl)pyrazole-4-carbonyl]benzonitrile], the IC50 was less than 10 nM. As for `Cc1nc(Oc2cc(C#N)ccc2-c2ccc(C(O)CN)c(F)c2F)cc(N2CCOCC2)n1` (stereo not drawn) [Compound 153, 4-[4-(2-amino-1-hydroxyethyl)-2,3-difluorophenyl]-3-(2-methyl-6-morpholin-4-ylpyrimidin-4-yl)oxybenzonitrile], the IC50 is less than 10 nM. In the case of `Cn1nc(C2CC2)cc1Oc1cc(C#N)ccc1-c1ncc(CN)s1` [compound 520, 4-[5-(aminomethyl)-1,3-thiazol-2-yl]-3-(5-cyclopropyl-2-methylpyrazol-3-yl)oxybenzonitrile], the IC50 was 10 to 1000 nM. The result for `CC(N)c1ccc(-c2ccc(C#N)cc2Oc2cc(C3CC3)nn2C)nc1` (stereo not drawn) [compound 401, 4-[5-(1-aminoethyl)pyridin-2-yl]-3-(5-cyclopropyl-2-methylpyrazol-3-yl)oxybenzonitrile] reads less than 10 nM; that for `Cc1nc(Oc2cc(C#N)ccc2-c2ncc(CCN)cn2)cc(-c2nccs2)n1` [compound 598, 4-[5-(2-aminoethyl)pyrimidin-2-yl]-3-[2-methyl-6-(1,3-thiazol-2-yl)pyrimidin-4-yl]oxybenzonitrile], 10 to 1000 nM. For `COCCOc1cc(Oc2cc(C#N)ccc2-c2ncc(CN)cn2)nc(C)n1` [compound 843, 4-[5-(aminomethyl)pyrimidin-2-yl]-3-[6-(2-methoxyethoxy)-2-methylpyrimidin-4-yl]oxybenzonitrile], the IC50 was greater than 1000 nM. `Cc1nc(Oc2cc(C#N)ccc2-c2ncc(CN)cn2)cc(OC2COC2)n1` [compound 895, 4-[5-(aminomethyl)pyrimidin-2-yl]-3-[2-methyl-6-(oxetan-3-yloxy)pyrimidin-4-yl]oxybenzonitrile]: the IC50 was greater than 1000 nM.

Turning to `Cc1cc(Oc2cc(C#N)ccc2-c2ccc(CN)cn2)n(C)n1` [compound 323, 4-[5-(aminomethyl)pyridin-2-yl]-3-(2,5-dimethylpyrazol-3-yl)oxybenzonitrile], the IC50 is 10 to 1000 nM.

In the case of `Cn1nc(C2CC2)cc1Oc1cc(C#N)ccc1-c1cc(C(=O)N2CCC[C@@H](N)C2)cn2ccnc12` [compound 757, 4-[6-[(3R)-3-aminopiperidine-1-carbonyl]imidazo[1,2-a]pyridin-8-yl]-3-(5-cyclopropyl-2-methylpyrazol-3-yl)oxybenzonitrile], the IC50 was greater than 1000 nM. Take `N#Cc1ccc(-c2ncc(C(O)CN)s2)c(Oc2cnnc(-c3ccccc3)c2)c1` (stereo not drawn) [Compound 246, 4-[5-(2-amino-1-hydroxyethyl)-1,3-thiazol-2-yl]-3-(6-phenylpyridazin-4-yl)oxybenzonitrile]: the IC50 was less than 10 nM. Regarding `Cc1nc(Oc2cc(C#N)ccc2-c2ncc([C@H](O)CN)cn2)cc(N2CCO[C@@H](C)C2)n1` [compound 559, 4-[5-[(1S)-2-amino-1-hydroxyethyl]pyrimidin-2-yl]-3-[2-methyl-6-[(2S)-2-methylmorpholin-4-yl]pyrimidin-4-yl]oxybenzonitrile], the IC50 was 10 to 1000 nM.

As to `N#Cc1ccc(-c2ncc(CN)cn2)c(Cn2ccnc2-c2ccccc2)c1` [compound 1183], the IC50 was greater than 1000 nM.

As to `CC(C)c1cc(Oc2cc(F)ccc2-c2ccc(CN)cn2)n(C)n1` [compound 1011, [6-[4-fluoro-2-(2-methyl-5-propan-2-ylpyrazol-3-yl)oxyphenyl]pyridin-3-yl]methanamine], the IC50 is less than 10 nM. Consider `CCCN(C)c1cc(Oc2cc(C#N)ccc2-c2ncc(CCN)cn2)n(C)n1` [compound 770, 4-[5-(2-aminoethyl)pyrimidin-2-yl]-3-[2-methyl-5-[methyl(propyl)amino]pyrazol-3-yl]oxybenzonitrile], for which the IC50 is less than 10 nM. On to `NCc1cnc(-c2ccc(F)cc2C(=O)c2cnn(C3CCC3)c2)nc1` [compound 1109, [2-[5-(aminomethyl)pyrimidin-2-yl]-5-fluorophenyl]-(1-cyclobutylpyrazol-4-yl)methanone], for which the IC50 is 10 to 1000 nM. Consider `Cn1nc(N2CC(F)(F)C(F)(F)C2)cc1Oc1cc(C#N)ccc1-c1ncc(CN)cn1` [compound 866, 4-[5-(aminomethyl)pyrimidin-2-yl]-3-[2-methyl-5-(3,3,4,4-tetrafluoropyrrolidin-1-yl)pyrazol-3-yl]oxybenzonitrile], for which the IC50 was less than 10 nM. As for `Cc1nc(Sc2cc(C#N)ccc2-c2ncc(CCN)cn2)cc(N2CCCC2)n1` [compound 1256, 4-[5-(2-aminoethyl)pyrimidin-2-yl]-3-(2-methyl-6-pyrrolidin-1-ylpyrimidin-4-yl)sulfanylbenzonitrile], the IC50 was 10 to 1000 nM. Under `Cc1nn(CC(C)C)cc1Oc1cc(F)ccc1-c1ncc(CCN)cn1` [Compound No. 966, 2-[2-[4-Fluoro-2-[3-methyl-1-(2-methylpropyl)pyrazol-4-yl]oxyphenyl]pyrimidin-5-yl]ethanamine] stands less than 10 nM; under `Cc1nn(-c2ccccn2)cc1Oc1cc(C#N)ccc1-c1ncc(CN)cn1` [compound 833, 4-[5-(aminomethyl)pyrimidin-2-yl]-3-(3-methyl-1-pyridin-2-ylpyrazol-4 yl)oxybenzonitrile], less than 10 nM; under `Cn1nc(C2CC2)cc1Oc1cc(C#N)ccc1-c1ccc(CN2CCNCC2=O)cn1` [compound 778, 3-(5-cyclopropyl-2-methylpyrazol-3-yl)oxy-4-[5-[(2-oxopiperazin-1-yl)methyl]pyridin-2-yl]benzonitrile], greater than 1000 nM.

The values above are taken from US20230167073A1 (Teijin Pharma Limited, priority 2020, published 2023).
